What all share (assay): Growth inhibitory activity of compounds on BaF3 cell lines stably transfected with kinase (MTS, 48 h)
What all share (format): cell-based

The target of assay [1] is T1, various mutants of kinase EGFR (BaF3 cell lines stably transfected with kinase) (Homo sapiens, UniProt P00533, L858R).
T1 construct: expressed in transfected cells; host or cells: BaF3
The note with it: BaF3 cell line stably transfected with EGFR L858R, read-out: L858R growth inhibitory activity IC50. The procedure, abridged: (§1)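 Transfected cells received compound (max 10 µM, 8 concentrations) for 48 h; MTS readout at 490 nm yielded IC50.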

Assay [2] addresses T2, various mutants of kinase EGFR (BaF3 cell lines stably transfected with kinase) (Homo sapiens, UniProt P00533, T790M, form not given).
T2 construct: other: BaF3 cells stably transfected with EGFR Δ19Del/T790M; MTS, 48 h; other: BaF3 cell line stably transfected with EGFR Δ19Del/T790M; MTS, 48
The note with it: BaF3 cell line stably transfected with EGFR Δ19Del/T790M, read-out: Δ19Del/ T790M growth inhibitory activity IC50. The procedure, abridged:
as §1

Assay [3] has as its target T3, various mutants of kinase EGFR (BaF3 cell lines stably transfected with kinase) (Homo sapiens, UniProt P00533, L858R/T790M).
T3 construct: expressed in transfected cells; host or cells: BaF3
The note with it: BaF3 cell line stably transfected with EGFR L858R/T790M, read-out: L858R/ T790M growth inhibitory activity IC50. The procedure, abridged:
as §1

Assay [4] deals with T4, various mutants of kinase EGFR (BaF3 cell lines stably transfected with kinase) (Homo sapiens, UniProt P00533, T790M/C797S, form not given).
T4 construct: other: BaF3 cells stably transfected with EGFR Δ19Del/T790M/C797S; MTS, 48; other: BaF3 cell line stably transfected with EGFR Δ19Del/T790M/C7
The note with it: BaF3 cell line stably transfected with EGFR Δ19Del/T790M/C797S, read-out: Δ19Del/T790M/ C797S growth inhibitory activity IC50. The essentials:
as §1

Assay [5] deals with T5, various mutants of kinase EGFR (BaF3 cell lines stably transfected with kinase) (Homo sapiens, UniProt P00533, C797S/L858R/T790M).
T5 construct: expressed in transfected cells; host or cells: BaF3
The note with it: BaF3 cell line stably transfected with EGFR L858R/T790M/C797S, read-out: L858R/T790M/ C797S growth inhibitory activity IC50. The procedure, abridged:
as §1

The target in assay [6] is T6, various mutants of kinase EGFR (BaF3 cell lines stably transfected with kinase) (Homo sapiens, UniProt P00533).
T6 construct: other: BaF3 cells stably transfected with EGFR Δ19Del; MTS, 48 h; other: BaF3 cell line stably transfected with EGFR Δ19Del
The settings on record: BaF3 cell line stably transfected with EGFR Δ19Del, read-out: Δ19Del growth inhibitory activity IC50. The procedure, abridged:
as §1

T4 sequence (P00533 with tags, fused parts or gaps DEL746-750/T790M/C797S, form open): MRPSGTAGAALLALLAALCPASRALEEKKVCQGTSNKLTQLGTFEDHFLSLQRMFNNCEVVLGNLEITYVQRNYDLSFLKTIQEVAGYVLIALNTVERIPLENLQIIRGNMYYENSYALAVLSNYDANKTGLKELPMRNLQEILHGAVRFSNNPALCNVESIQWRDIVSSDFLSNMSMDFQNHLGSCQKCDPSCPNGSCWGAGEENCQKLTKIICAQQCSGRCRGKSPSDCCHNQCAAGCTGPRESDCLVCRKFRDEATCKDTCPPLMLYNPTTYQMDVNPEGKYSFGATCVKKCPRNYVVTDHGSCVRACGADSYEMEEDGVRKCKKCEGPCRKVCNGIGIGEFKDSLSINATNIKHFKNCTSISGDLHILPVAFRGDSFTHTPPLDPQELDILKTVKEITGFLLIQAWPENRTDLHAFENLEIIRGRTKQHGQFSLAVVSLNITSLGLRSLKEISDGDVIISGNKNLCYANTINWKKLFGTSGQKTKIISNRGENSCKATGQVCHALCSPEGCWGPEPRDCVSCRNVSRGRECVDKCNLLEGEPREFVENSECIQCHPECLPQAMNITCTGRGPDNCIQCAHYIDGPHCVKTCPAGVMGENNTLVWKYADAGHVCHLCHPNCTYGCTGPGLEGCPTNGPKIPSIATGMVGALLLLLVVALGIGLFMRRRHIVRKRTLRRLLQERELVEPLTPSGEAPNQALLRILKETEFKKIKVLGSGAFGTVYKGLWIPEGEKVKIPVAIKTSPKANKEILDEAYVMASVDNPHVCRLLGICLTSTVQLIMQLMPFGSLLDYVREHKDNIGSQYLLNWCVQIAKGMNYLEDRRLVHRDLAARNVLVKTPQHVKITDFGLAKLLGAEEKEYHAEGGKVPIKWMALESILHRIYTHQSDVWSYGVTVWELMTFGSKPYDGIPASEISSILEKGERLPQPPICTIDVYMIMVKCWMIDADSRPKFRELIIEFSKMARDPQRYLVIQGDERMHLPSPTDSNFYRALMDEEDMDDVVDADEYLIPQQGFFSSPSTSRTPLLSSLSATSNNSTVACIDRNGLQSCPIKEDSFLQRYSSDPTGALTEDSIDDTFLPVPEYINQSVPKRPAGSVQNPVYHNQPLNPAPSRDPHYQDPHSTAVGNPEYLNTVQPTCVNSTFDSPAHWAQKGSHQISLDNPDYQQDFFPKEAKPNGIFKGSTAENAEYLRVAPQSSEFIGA
T6 sequence (P00533 with tags, fused parts or gaps DEL746-750): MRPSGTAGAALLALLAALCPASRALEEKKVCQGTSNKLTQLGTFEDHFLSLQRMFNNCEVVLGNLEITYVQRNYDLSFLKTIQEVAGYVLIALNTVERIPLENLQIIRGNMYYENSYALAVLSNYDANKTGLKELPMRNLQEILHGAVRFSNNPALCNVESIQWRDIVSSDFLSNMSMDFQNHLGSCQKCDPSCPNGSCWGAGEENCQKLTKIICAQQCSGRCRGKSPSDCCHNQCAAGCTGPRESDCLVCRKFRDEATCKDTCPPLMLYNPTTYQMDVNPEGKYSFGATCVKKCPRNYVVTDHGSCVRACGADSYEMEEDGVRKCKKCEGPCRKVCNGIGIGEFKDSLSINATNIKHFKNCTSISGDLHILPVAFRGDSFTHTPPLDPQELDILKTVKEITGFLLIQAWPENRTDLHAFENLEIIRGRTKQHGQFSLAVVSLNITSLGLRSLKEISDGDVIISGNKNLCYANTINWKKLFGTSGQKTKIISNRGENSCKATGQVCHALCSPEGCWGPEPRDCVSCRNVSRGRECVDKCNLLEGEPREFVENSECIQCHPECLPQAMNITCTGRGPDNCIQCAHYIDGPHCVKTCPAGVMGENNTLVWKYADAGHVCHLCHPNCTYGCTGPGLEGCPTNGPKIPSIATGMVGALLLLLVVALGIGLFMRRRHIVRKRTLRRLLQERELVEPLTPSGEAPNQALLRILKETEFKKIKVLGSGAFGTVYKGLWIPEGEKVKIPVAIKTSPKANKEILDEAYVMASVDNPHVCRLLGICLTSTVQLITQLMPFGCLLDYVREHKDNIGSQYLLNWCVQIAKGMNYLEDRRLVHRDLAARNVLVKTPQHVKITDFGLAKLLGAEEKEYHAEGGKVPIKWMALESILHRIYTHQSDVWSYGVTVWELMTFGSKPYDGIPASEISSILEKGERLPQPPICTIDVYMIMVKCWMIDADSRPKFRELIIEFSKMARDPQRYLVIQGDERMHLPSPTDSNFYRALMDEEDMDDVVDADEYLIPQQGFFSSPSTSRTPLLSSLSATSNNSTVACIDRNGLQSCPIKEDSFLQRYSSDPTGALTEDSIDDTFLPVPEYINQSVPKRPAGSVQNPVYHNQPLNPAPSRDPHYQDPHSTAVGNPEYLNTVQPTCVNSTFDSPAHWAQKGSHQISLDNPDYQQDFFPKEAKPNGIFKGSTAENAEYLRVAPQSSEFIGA
T5 sequence (P00533 25-1210 T790M/C797S/L858R): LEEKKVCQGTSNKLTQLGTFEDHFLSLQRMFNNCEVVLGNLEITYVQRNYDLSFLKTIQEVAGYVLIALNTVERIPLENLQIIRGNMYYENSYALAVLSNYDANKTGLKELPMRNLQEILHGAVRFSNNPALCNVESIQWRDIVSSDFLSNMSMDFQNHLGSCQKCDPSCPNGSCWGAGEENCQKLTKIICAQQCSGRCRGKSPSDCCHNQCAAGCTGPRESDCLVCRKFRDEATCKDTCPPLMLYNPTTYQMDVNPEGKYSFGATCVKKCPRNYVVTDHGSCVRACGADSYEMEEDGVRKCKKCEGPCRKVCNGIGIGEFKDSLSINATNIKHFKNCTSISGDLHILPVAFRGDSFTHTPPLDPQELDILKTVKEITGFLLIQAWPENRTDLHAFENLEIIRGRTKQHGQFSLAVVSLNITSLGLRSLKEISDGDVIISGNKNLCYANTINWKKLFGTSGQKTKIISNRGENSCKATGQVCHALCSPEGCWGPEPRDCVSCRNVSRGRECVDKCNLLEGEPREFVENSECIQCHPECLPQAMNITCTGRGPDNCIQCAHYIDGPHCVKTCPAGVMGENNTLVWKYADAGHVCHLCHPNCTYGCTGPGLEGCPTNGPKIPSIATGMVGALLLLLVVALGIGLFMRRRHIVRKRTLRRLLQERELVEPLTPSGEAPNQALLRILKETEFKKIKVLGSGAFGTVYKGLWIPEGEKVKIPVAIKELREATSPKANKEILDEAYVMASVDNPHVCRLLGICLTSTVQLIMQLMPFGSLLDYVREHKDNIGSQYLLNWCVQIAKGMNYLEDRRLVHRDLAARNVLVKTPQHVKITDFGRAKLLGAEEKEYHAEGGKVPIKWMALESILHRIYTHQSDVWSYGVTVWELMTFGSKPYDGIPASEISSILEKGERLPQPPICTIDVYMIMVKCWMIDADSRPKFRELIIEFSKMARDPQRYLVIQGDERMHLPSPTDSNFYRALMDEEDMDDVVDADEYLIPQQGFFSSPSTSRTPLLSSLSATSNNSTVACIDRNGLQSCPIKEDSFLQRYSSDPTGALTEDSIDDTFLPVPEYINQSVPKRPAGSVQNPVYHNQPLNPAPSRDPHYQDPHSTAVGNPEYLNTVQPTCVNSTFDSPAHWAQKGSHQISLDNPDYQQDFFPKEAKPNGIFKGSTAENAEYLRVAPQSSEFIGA
T1 sequence (P00533 25-1210 L858R): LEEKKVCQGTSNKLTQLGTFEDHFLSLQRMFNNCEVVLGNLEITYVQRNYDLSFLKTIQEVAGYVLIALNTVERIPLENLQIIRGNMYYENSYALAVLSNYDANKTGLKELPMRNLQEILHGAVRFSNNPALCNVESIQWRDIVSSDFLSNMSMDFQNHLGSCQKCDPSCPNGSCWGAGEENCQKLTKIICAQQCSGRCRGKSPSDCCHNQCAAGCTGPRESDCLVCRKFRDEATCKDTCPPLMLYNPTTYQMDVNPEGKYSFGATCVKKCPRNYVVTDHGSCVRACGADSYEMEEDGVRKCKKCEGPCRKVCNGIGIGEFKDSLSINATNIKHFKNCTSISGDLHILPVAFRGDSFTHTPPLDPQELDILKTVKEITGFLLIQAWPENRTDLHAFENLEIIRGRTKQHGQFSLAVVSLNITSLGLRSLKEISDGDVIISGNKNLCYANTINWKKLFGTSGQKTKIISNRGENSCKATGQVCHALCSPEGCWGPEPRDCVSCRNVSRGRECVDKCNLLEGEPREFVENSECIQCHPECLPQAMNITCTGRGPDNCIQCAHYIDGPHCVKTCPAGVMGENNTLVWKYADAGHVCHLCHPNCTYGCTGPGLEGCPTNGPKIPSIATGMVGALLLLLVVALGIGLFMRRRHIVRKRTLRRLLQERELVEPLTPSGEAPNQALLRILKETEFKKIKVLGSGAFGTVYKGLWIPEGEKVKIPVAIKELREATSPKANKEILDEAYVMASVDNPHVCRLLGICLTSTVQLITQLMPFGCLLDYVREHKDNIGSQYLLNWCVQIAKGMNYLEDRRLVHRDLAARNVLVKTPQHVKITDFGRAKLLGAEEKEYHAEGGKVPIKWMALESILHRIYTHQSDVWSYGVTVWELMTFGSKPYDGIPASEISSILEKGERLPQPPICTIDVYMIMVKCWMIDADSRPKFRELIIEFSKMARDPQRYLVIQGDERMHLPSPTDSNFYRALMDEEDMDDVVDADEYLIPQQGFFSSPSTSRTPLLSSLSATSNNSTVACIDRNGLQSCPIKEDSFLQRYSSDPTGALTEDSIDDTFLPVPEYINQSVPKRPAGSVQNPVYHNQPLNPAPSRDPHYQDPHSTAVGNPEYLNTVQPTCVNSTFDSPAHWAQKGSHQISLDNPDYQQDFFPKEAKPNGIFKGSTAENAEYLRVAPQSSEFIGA

For `CCc1cc(Nc2nc(Nc3ccc4nccnc4c3N(C)S(C)(=O)=O)c3[nH]ccc3n2)c(OC(F)(F)F)cc1N1CCC(N2CCN(C)CC2)CC1` [II-1-22], the IC50 fell in the range of 0.5 to 2.5 µM in assay [1]; 0.05 to 0.5 µM in assay [2]; 0.05 to 0.5 µM in assay [3]; 0.05 to 0.5 µM in assay [4]; 0.05 to 0.5 µM in assay [5]; 0.05 to 0.5 µM in assay [6].
Consider `C=Cc1cc(Nc2nc(Nc3ccc4nccnc4c3N(C)S(C)(=O)=O)c3[nH]ccc3n2)c(OC(F)(F)F)cc1N1CCC(N2CCN(C)CC2)CC1` [II-1-23], for which the IC50 in assay [1] was 0.05 to 0.5 µM; in assay [2] it was 0.05 to 0.5 µM; in assay [3], 0.05 to 0.5 µM; in assay [4], ≤ 0.05 µM; in assay [5], 0.05 to 0.5 µM; in assay [6], 0.05 to 0.5 µM.
Regarding `COc1cc(N2CCC(N3CCN(C)CC3)CC2)ccc1Nc1nc(Nc2ccc3nccnc3c2N(C)S(C)(=O)=O)c2occc2n1` [II-1-24], the IC50 in assay [1], in assay [2], in assay [3], in assay [4], in assay [5] and in assay [6] was 0.5 to 2.5 µM throughout.
For the compound `COc1cc(N2CCC(N3CCN(C)CC3)CC2)c(C)cc1Nc1nc(Nc2ccc3nccnc3c2N(C)S(C)(=O)=O)c2occc2n1` [II-1-25], the IC50 in assay [1] is 0.05 to 0.5 µM; in assay [2], 0.05 to 0.5 µM; in assay [3] it was 0.05 to 0.5 µM; in assay [4], ≤ 0.05 µM; in assay [5] it was 0.05 to 0.5 µM; in assay [6] it was 0.05 to 0.5 µM.
For the compound `CCc1cc(Nc2nc(Nc3ccc4nccnc4c3N(C)S(C)(=O)=O)c3occc3n2)c(OC)cc1N1CCC(N2CCN(C)CC2)CC1` [II-1-26], the IC50 in assay [1] is 0.05 to 0.5 µM; in assay [2], ≤ 0.05 µM; in assay [3], ≤ 0.05 µM; in assay [4] it was ≤ 0.05 µM; in assay [5], ≤ 0.05 µM; in assay [6], 0.05 to 0.5 µM.
`COc1nc(N2CCC(N3CCN(C)CC3)CC2)ccc1Nc1nc(Nc2ccc3nccnc3c2N(C)S(C)(=O)=O)c2[nH]ccc2n1` [II-1-27]: the IC50 in assay [1], in assay [2], in assay [3], in assay [4], in assay [5] and in assay [6] was 0.5 to 2.5 µM throughout.
On to `COc1nc(N2CCC(N3CCN(C)CC3)CC2)c(C)cc1Nc1nc(Nc2ccc3nccnc3c2N(C)S(C)(=O)=O)c2[nH]ccc2n1` [II-1-28], for which the IC50 in assay [1], in assay [2], in assay [3], in assay [4], in assay [5] and in assay [6] was 0.5 to 2.5 µM each time.
Take `CN1CCN(C2CCN(c3ccc(Nc4nc(Nc5ccc6nccnc6c5N(C)S(C)(=O)=O)c5[nH]ccc5n4)c(OC(F)(F)F)c3)CC2)CC1` [II-1-29]: the IC50 fell in the range of 0.5 to 2.5 µM in assay [1]; 0.5 to 2.5 µM in assay [2]; 0.5 to 2.5 µM in assay [3]; 0.05 to 0.5 µM in assay [4]; 0.5 to 2.5 µM in assay [5]; 0.5 to 2.5 µM in assay [6].
Turning to `COc1cc(N2CCC(N(C)C)CC2)c(C)cc1Nc1nc(Nc2ccc3nccnc3c2N(C)S(C)(=O)=O)c2[nH]ccc2n1` [II-1-31], the IC50 in assay [1] fell in the range of 0.5 to 2.5 µM; in assay [2], 0.5 to 2.5 µM; in assay [3] it was 0.5 to 2.5 µM; in assay [4], 0.05 to 0.5 µM; in assay [5], 0.5 to 2.5 µM; in assay [6] it was 0.5 to 2.5 µM.
Regarding `CCc1cc(Nc2nc(Nc3ccc4nccnc4c3N(C)S(C)(=O)=O)c3[nH]ccc3n2)c(OC)cc1N1CCC(N(C)C)CC1` [II-1-32], the IC50 in assay [1] lay in the range of 0.5 to 2.5 µM; in assay [2], 0.5 to 2.5 µM; in assay [3], 0.05 to 0.5 µM; in assay [4], 0.05 to 0.5 µM; in assay [5], 0.05 to 0.5 µM; in assay [6] it was 0.5 to 2.5 µM.
Regarding `COc1cc(N2CCN(C)CC2)c(C)cc1Nc1nc(Nc2ccc3nccnc3c2N(C)S(C)(=O)=O)c2[nH]ccc2n1` [II-1-33], the IC50 in assay [1], in assay [2], in assay [3], in assay [4], in assay [5] and in assay [6] was 0.5 to 2.5 µM throughout.
